Test results from ChEMBL document CHEMBL1201862, “PubChem BioAssay data set” (2004).
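In this assay, cells in 96-well plates receive the compound at five concentrations for 48 hours. Endpoints are linearly interpolated between the surrounding concentrations. The concentration for 50% growth inhibition is given as GI50.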 Activity calls are given as the source filed them. No stated cut-off is given here; in the data, active = GI50 up to about 1.1 µM and inactive = higher.

Assays:
Assay in all cases: NCI tumour cell line growth inhibition, 48 h
K562 = system: K562
MOLT-4 = system: MOLT-4
SNB-19 = system: SNB-19
HCT-116 = system: HCT-116
DU-145 = system: DU-145
COLO 205 = system: COLO 205
SF-539 = system: SF-539
LOX IMVI = system: LOX IMVI
NCI-H460 = system: NCI-H460
M14 = system: M14
PC-3 = system: PC-3
BT-549 = system: BT-549
UO-31 = system: UO-31
CAKI-1 = system: CAKI-1
MDA-N = system: MDA-N
786-0 = system: 786-0
NCI/ADR-RES = system: NCI/ADR-RES
SK-MEL-2 = system: SK-MEL-2
OVCAR-3 = system: OVCAR-3
SNB-75 = system: SNB-75
HCC 2998 = system: HCC 2998
Malme-3M = system: Malme-3M
OVCAR-5 = system: OVCAR-5
HOP-62 = system: HOP-62
Hs-578T = system: Hs-578T
SN12C = system: SN12C
U-251 = system: U-251
SF-268 = system: SF-268
RPMI-8226 = system: RPMI-8226
TK-10 = system: TK-10
NCI-H522 = system: NCI-H522
OVCAR-4 = system: OVCAR-4
SK-MEL-28 = system: SK-MEL-28
OVCAR-8 = system: OVCAR-8
KM12 = system: KM12
ACHN = system: ACHN
MDA-MB-435 = system: MDA-MB-435
SK-MEL-5 = system: SK-MEL-5
IGROV-1 = system: IGROV-1
SR = system: SR
NCI-H226 = system: NCI-H226
EKVX = system: EKVX
SF-295 = system: SF-295
HL-60 = system: HL-60
UACC-257 = system: UACC-257
HCT-15 = system: HCT-15
MCF7 = system: MCF7
HT-29 = system: HT-29
SW-620 = system: SW-620
CCRF-CEM = system: CCRF-CEM
RXF 393 = system: RXF 393
A498 = system: A498
MDA-MB-231 = system: MDA-MB-231
A549 = system: A549
HOP-92 = system: HOP-92
NCI-H23 = system: NCI-H23
SK-OV-3 = system: SK-OV-3
UACC-62 = system: UACC-62

For O=CC1OC(=O)c2cc(O)c(O)c(O)c2-c2c(cc(O)c(O)c2O)C(=O)OC1C(O)C(O)CO (stereo not given), the GI50 (K562) was 21.1 µM (inactive), the GI50 (MOLT-4) was 22.9 µM (inactive) and the GI50 (SNB-19) was > 100 µM (inactive). For the same molecule, the GI50 (HCT-116) was 28.1 µM (inactive), the GI50 (DU-145) was > 100 µM (inactive) and the GI50 (COLO 205) was 45.5 µM (inactive). The GI50 (SF-539) was > 100 µM (inactive), the GI50 (LOX IMVI) was 15.4 µM (inactive) and the GI50 (NCI-H460) was 28.8 µM (inactive). For the same molecule, the GI50 (M14) was 35 µM (inactive), the GI50 (PC-3) was 16.2 µM (inactive) and the GI50 (BT-549) was 51.4 µM (inactive). For the same molecule, the GI50 (UO-31) was > 100 µM (inactive), the GI50 (CAKI-1) was 19.1 µM (inactive) and the GI50 (MDA-N) was 18.7 µM (inactive). The GI50 (786-0) was > 100 µM (inactive), the GI50 (NCI/ADR-RES) was 76.9 µM (inactive) and the GI50 (SK-MEL-2) was 15.4 µM (inactive). For the same molecule, the GI50 (OVCAR-3) was 71 µM (inactive), the GI50 (SNB-75) was > 100 µM (inactive) and the GI50 (HCC 2998) was > 100 µM (inactive). For the same molecule, the GI50 (Malme-3M) was > 100 µM (inactive), the GI50 (OVCAR-5) was > 100 µM (inactive) and the GI50 (HOP-62) was 63.2 µM (inactive). For the same molecule, the GI50 (Hs-578T) was 54 µM (inactive), the GI50 (SN12C) was 28.5 µM (inactive) and the GI50 (U-251) was 17.9 µM (inactive). For the same molecule, the GI50 (SF-268) was > 100 µM (inactive), the GI50 (RPMI-8226) was 26.2 µM (inactive) and the GI50 (TK-10) was 19.5 µM (inactive). For the same molecule, the GI50 (NCI-H522) was 31 µM (inactive), the GI50 (OVCAR-4) was 17.4 µM (inactive) and the GI50 (SK-MEL-28) was 83.4 µM (inactive). For the same molecule, the GI50 (OVCAR-8) was 19.8 µM (inactive), the GI50 (KM12) was 41.5 µM (inactive) and the GI50 (ACHN) was 43.6 µM (inactive). The GI50 (MDA-MB-435) was 18.3 µM (inactive), the GI50 (SK-MEL-5) was 51.6 µM (inactive) and the GI50 (IGROV-1) was > 100 µM (inactive). The GI50 (SR) was 20.6 µM (inactive), the GI50 (NCI-H226) was > 100 µM (inactive) and the GI50 (EKVX) was > 100 µM (inactive). For the same molecule, the GI50 (SF-295) was 27.9 µM (inactive), the GI50 (HL-60) was 35.4 µM (inactive) and the GI50 (UACC-257) was 82 µM (inactive). The GI50 (HCT-15) was 69.2 µM, the GI50 (MCF7) was 19.1 µM (inactive) and the GI50 (HT-29) was 22 µM (inactive). The GI50 (SW-620) was 17.1 µM (inactive), the GI50 (CCRF-CEM) was 38.8 µM (inactive) and the GI50 (RXF 393) was > 100 µM (inactive). For the same molecule, the GI50 (A498) was > 100 µM (inactive), the GI50 (MDA-MB-231) was 17.1 µM (inactive) and the GI50 (A549) was 49.8 µM (inactive). The GI50 (HOP-92) was > 100 µM (inactive) and the GI50 (NCI-H23) was > 100 µM (inactive).
With COc1cc(/C=C2\CCC/C(=C\c3ccc(OC(=O)CCCCC4CCSS4)c(OC)c3)C2=O)ccc1OC(=O)CCCCC1CCSS1 (stereo not given) the GI50 (K562) was > 100 µM (inactive), the GI50 (MOLT-4) was > 100 µM (inactive) and the GI50 (SNB-19) was > 100 µM (inactive). The GI50 (HCT-116) was > 100 µM (inactive), the GI50 (DU-145) was > 100 µM (inactive) and the GI50 (COLO 205) was > 100 µM (inactive). For the same molecule, the GI50 (SK-OV-3) was > 100 µM (inactive), the GI50 (SF-539) was > 100 µM (inactive) and the GI50 (LOX IMVI) was > 100 µM (inactive). For the same molecule, the GI50 (NCI-H460) was > 100 µM (inactive), the GI50 (M14) was > 100 µM (inactive) and the GI50 (PC-3) was > 100 µM (inactive). For the same molecule, the GI50 (BT-549) was > 100 µM (inactive), the GI50 (UO-31) was > 100 µM (inactive) and the GI50 (MDA-N) was > 100 µM (inactive). The GI50 (786-0) was > 100 µM (inactive), the GI50 (NCI/ADR-RES) was > 100 µM (inactive) and the GI50 (SK-MEL-2) was > 100 µM (inactive). The GI50 (OVCAR-3) was > 100 µM (inactive), the GI50 (SNB-75) was > 100 µM (inactive) and the GI50 (Malme-3M) was > 100 µM (inactive). For the same molecule, the GI50 (OVCAR-5) was > 100 µM (inactive), the GI50 (HOP-62) was > 100 µM (inactive) and the GI50 (Hs-578T) was > 100 µM (inactive). The GI50 (SN12C) was > 100 µM (inactive), the GI50 (U-251) was > 100 µM (inactive) and the GI50 (SF-268) was > 100 µM (inactive). For the same molecule, the GI50 (RPMI-8226) was > 100 µM (inactive), the GI50 (TK-10) was > 100 µM (inactive) and the GI50 (NCI-H522) was > 100 µM (inactive). For the same molecule, the GI50 (OVCAR-4) was > 100 µM (inactive), the GI50 (SK-MEL-28) was > 100 µM (inactive) and the GI50 (OVCAR-8) was > 100 µM (inactive). The GI50 (KM12) was > 100 µM (inactive), the GI50 (ACHN) was > 100 µM (inactive) and the GI50 (MDA-MB-435) was > 100 µM (inactive). The GI50 (UACC-62) was > 100 µM (inactive), the GI50 (SK-MEL-5) was > 100 µM (inactive) and the GI50 (IGROV-1) was > 100 µM (inactive). The GI50 (NCI-H226) was > 100 µM (inactive), the GI50 (EKVX) was > 100 µM (inactive) and the GI50 (SF-295) was > 100 µM (inactive). The GI50 (HL-60) was > 100 µM (inactive), the GI50 (UACC-257) was > 100 µM (inactive) and the GI50 (HCT-15) was over 100 µM. For the same molecule, the GI50 (MCF7) was > 100 µM (inactive), the GI50 (HT-29) was > 100 µM (inactive) and the GI50 (SW-620) was > 100 µM (inactive). For the same molecule, the GI50 (CCRF-CEM) was 91.2 µM (inactive), the GI50 (RXF 393) was > 100 µM (inactive) and the GI50 (A498) was > 100 µM (inactive). The GI50 (MDA-MB-231) was > 100 µM (inactive), the GI50 (A549) was > 100 µM (inactive) and the GI50 (NCI-H23) was > 100 µM (inactive).
